Experimental data as given in ChEMBL document CHEMBL5370619, “Targeting the Tyrosine Kinase 2 (TYK2) Pseudokinase Domain: Discovery of the Selective TYK2 Inhibitor ABBV-712” (J Med Chem, 2023).
≈ marks a conversion by molar mass, not a printed value.

Key:
[1] = biological target: T1, Tyrosine-protein kinase JAK1 (Homo sapiens, UniProt P23458); assay: Inhibition of JAK1 JH1 domain (unknown origin) by TR-FRET assay
[2] = biological target: T2, Non-receptor tyrosine-protein kinase TYK2 (Homo sapiens, UniProt P29597); assay: Inhibition of TYK2 JH1 domain (unknown origin) by TR-FRET assay
[3] = biological target: Tyrosine-protein kinase JAK2 (Homo sapiens, UniProt O60674); assay: Inhibition of JAK2 in human UT7 cells assessed as reduction in erythropoietin induced STAT5 phosphorylation preincubated for 30 mins followed by erythropoietin stimulation and measured after 20 mins by AlphaScreen assay; type: cell-based
[4] = biological target: T2, Non-receptor tyrosine-protein kinase TYK2; assay: Inhibition of TYK2 in human T-blast cells assessed as IL-12 induced STAT4 phosphorylation at Tyr694 residue preincubated for 30 mins followed by IL-12 stimulation and measured after 20 mins by AlphaScreen assay; type: cell-based, T-blast cell
[5] = biological target: T2, Non-receptor tyrosine-protein kinase TYK2; assay: Inhibition of recombinant human N-terminal His-tagged TYK2 JH2 domain (577 to 870 residues) expressed in Sf9 cells using N-(2-(2-(2-((3-(5-acetamido-3-(3-(N,N-dimethylsulfamoyl)phenyl)-1H-pyrrolo[2,3-c]pyridin-1-yl)propyl)amino)-2-oxoethoxy)ethoxy)ethyl)-2',7'-difluoro-3',6'-dihydroxy-3-oxo-3H-spiro[isobenzofuran-1,9'-xanthene]-5-carboxamide trifluoroacetate as substrate incubated for 60 mins by TR-FRET assay
[6] = biological target: T3, Tyrosine-protein kinase JAK3 (Homo sapiens, UniProt P52333); assay: Inhibition of JAK3 in human T-blast cells assessed as reduction in IL-2 induced STAT5 phosphorylation preincubated for 30 mins followed by IL-2 stimulation and measured after 20 mins by AlphaScreen assay; type: cell-based, T-blast cell
T3 sequence (P52333 whole entry): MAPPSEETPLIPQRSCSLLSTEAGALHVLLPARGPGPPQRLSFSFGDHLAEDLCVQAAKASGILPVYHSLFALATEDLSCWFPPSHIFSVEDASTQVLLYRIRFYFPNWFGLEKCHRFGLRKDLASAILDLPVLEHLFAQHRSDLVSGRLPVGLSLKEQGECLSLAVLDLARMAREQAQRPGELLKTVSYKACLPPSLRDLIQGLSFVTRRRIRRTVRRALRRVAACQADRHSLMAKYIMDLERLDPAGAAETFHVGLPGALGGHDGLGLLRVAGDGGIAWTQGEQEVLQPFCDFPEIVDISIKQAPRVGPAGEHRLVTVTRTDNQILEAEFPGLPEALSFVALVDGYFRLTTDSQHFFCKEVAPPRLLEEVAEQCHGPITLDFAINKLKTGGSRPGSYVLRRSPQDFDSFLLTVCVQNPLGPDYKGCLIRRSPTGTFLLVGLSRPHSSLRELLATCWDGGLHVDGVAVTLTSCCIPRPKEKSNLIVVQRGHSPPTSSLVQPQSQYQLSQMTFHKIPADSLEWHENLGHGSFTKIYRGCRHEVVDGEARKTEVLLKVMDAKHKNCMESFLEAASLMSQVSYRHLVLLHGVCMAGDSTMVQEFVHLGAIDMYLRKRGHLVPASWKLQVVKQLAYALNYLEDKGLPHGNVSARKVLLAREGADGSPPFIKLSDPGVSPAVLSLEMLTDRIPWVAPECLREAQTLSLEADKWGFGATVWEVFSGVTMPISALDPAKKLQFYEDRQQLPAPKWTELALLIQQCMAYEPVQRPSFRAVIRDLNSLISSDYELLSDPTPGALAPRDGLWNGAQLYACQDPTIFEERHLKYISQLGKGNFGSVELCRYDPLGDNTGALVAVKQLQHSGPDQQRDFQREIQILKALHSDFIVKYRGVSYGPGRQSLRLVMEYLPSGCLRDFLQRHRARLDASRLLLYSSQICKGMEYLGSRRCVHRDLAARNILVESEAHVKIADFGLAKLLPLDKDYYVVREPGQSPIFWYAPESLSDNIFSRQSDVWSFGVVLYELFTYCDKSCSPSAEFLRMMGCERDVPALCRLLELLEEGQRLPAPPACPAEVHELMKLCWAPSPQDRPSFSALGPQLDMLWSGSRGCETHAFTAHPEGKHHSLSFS

[7] = Thermodynamic solubility in PBS at pH 7.4; type: physicochemical; conditions: read-out: Therm_solubility
[8] = biological target: T1, Tyrosine-protein kinase JAK1; assay: Inhibition of JAK1 in human TF-1 cells assessed as reduction in IL-6 induced STAT3 phosphorylation at Tyr705 residue preincubated for 30 mins followed by IL-6 stimulation and measured after 30 mins by AlphaScreen assay; type: cell-based
[9] = Metabolic stability in human hepatocytes assessed as intrinsic clearance for unbound fraction of drug; type: ADME, cell-based, Hepatocyte
[10] = Selectivity ratio of IC50 for inhibition of TYK2 JH1 domain (unknown origin) to IC50 for inhibition of recombinant human N-terminal His-tagged TYK2 JH2 domain (577 to 870 residues) expressed in Sf9 cells
[11] = Selectivity ratio of IC50 for inhibition of JAK1 JH1 domain (unknown origin) to IC50 for inhibition of recombinant human N-terminal His-tagged TYK2 JH2 domain (577 to 870 residues) expressed in Sf9 cells
CYP3A4 [12] = biological target: T4, CYP3A4 (Homo sapiens, UniProt P08684); assay: Induction of CYP3A4 in human hepatocytes assessed as fold increase in mRNA level at 10 uM incubated for 24 hrs by RT-qPCR analysis relative to control; type: ADME, cell-based, Hepatocyte; conditions: read-out: FC
CYP3A4 [13] = biological target: T4, CYP3A4; assay: Induction of CYP3A4 in human hepatocytes assessed as maximum activation in mRNA level at 10 uM incubated for 24 hrs by RT-qPCR analysis relative to control; type: ADME, cell-based, Hepatocyte; conditions: read-out: max activation
CYP3A4 [14] = biological target: T4, CYP3A4; assay: Time dependent inhibition of CYP3A4 in human liver microsomes using midazolam as substrate assessed as 1'-OH midazolam metabolite formation at 50 uM preincubated for 30 mins in presence of NADPH followed by substrate addition and measured after 15 mins by HPLC-MS/MS analysis relative to control; type: ADME, Microsome; conditions: probe midazolam, time 45 min, read-out: TDI
[15] = Unbound clearance in rat blood at 1 mg/kg, iv or 1 mg/kg,po; type: ADME, organism-based; conditions: in vivo
[16] = Half life in rat at 1 mg/kg, iv or 1 mg/kg,po; type: ADME, organism-based; conditions: in vivo
[17] = Oral bioavailability in rat at 1 mg/kg; type: ADME, organism-based; conditions: in vivo
[18] = Volume of distribution at steady state in rat at 1 mg/kg, iv or 1 mg/kg,po; type: ADME, organism-based; conditions: in vivo, read-out: Vdss
[19] = Oral bioavailability in dog at 0.5 mg/kg; type: ADME, organism-based, Canis lupus familiaris; conditions: in vivo
[20] = AUC (0 to infinity) in dog at 0.5 mg/kg,po; type: ADME, organism-based, Canis lupus familiaris; design: dose 0.5 mg/kg, route po; conditions: in vivo
[21] = Half life in cynomolgus monkey at 0.5 mg/kg, iv; type: ADME, organism-based, Macaca fascicularis; conditions: in vivo
[22] = Unbound clearance in dog blood at 0.5 mg/kg, iv; type: ADME, organism-based, Canis lupus familiaris; conditions: in vivo
[23] = Unbound clearance in cynomolgus monkey blood at 0.5 mg/kg, iv; type: ADME, organism-based, Macaca fascicularis; conditions: in vivo
[24] = Half life in dog at 0.5 mg/kg, iv; type: ADME, organism-based, Canis lupus familiaris; conditions: in vivo
[25] = Metabolic stability in monkey hepatocytes assessed as intrinsic clearance for unbound fraction of drug; type: ADME, cell-based, Macaca mulatta, Hepatocyte; conditions: rhesus monkey
[26] = Metabolic stability in dog hepatocytes assessed as intrinsic clearance for unbound fraction of drug; type: ADME, cell-based, Canis lupus familiaris, Hepatocyte

T4 sequence (P08684 whole entry): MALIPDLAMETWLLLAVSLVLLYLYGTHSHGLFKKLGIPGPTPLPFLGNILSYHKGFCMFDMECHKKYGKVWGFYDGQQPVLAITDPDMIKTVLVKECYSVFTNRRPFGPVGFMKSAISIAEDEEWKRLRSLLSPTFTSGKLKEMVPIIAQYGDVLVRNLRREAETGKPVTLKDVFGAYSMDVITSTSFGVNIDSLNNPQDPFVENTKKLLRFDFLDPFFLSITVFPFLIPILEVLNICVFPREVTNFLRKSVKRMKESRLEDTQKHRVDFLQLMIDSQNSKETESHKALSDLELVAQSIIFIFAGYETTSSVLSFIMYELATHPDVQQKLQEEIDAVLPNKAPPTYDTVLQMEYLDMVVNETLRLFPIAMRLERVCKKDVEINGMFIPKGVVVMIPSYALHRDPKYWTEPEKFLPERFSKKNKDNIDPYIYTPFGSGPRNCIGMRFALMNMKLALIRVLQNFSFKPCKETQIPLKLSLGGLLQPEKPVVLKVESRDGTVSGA
T2 sequence (P29597 whole entry, the tested form may be a part): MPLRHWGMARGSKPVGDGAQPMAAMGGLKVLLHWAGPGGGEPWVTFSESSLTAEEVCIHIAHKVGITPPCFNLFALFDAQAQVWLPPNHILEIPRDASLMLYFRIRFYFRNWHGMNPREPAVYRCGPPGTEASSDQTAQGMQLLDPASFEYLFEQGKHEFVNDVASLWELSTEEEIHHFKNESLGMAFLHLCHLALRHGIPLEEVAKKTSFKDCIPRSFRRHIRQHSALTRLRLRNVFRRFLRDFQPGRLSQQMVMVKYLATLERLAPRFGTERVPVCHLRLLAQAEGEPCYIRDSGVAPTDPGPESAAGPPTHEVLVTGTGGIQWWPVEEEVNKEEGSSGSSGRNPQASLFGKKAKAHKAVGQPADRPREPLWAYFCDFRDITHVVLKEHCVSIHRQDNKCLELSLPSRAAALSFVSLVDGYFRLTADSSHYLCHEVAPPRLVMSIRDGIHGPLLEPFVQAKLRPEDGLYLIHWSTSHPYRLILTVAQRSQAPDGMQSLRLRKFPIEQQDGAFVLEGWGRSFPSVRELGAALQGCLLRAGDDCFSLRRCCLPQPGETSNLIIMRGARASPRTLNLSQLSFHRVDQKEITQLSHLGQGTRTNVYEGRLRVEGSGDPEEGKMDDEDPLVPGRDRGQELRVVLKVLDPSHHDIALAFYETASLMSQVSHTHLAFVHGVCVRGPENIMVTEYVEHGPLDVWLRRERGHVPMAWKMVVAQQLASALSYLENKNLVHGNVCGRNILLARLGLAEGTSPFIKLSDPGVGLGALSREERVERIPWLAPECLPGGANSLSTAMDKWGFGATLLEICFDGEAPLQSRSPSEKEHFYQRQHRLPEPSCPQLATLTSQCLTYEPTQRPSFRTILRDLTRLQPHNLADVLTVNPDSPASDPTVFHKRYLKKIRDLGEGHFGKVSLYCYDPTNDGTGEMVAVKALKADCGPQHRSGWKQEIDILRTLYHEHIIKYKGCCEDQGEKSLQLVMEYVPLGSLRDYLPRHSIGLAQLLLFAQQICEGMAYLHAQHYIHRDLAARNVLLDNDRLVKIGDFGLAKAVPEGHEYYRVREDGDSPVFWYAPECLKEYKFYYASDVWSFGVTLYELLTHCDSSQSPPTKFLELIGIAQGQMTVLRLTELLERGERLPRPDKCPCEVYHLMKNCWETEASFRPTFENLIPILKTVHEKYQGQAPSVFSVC
Tyrosine-protein kinase JAK2, sequence (O60674 whole entry): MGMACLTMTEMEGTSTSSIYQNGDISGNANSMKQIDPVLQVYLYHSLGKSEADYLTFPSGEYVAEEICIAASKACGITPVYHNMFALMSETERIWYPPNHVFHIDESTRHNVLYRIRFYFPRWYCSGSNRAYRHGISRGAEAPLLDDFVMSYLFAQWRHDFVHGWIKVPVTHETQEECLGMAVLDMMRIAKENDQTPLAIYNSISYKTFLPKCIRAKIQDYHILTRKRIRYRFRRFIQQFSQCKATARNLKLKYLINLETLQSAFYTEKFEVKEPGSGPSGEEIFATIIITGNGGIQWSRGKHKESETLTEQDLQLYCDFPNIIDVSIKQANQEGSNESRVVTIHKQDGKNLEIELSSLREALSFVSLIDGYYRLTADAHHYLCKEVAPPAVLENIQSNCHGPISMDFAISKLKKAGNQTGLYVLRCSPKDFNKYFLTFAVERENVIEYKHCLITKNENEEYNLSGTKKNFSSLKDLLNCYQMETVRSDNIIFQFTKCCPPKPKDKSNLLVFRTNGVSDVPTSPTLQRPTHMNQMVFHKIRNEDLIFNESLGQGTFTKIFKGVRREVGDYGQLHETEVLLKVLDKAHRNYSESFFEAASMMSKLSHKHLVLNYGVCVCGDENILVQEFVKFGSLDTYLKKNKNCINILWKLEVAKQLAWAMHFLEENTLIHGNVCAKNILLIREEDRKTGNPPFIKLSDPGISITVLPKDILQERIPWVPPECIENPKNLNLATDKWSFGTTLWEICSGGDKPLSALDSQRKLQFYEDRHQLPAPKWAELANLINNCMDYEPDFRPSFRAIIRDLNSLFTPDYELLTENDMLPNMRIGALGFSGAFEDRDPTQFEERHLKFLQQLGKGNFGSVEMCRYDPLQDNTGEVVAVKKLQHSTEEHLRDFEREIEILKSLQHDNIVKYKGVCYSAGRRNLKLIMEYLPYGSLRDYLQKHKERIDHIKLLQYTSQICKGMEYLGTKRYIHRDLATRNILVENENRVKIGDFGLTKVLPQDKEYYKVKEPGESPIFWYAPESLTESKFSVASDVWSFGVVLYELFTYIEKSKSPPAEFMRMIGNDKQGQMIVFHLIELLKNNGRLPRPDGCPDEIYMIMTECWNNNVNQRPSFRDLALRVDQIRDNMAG
T1 sequence (P23458 whole entry, the tested form may be a part): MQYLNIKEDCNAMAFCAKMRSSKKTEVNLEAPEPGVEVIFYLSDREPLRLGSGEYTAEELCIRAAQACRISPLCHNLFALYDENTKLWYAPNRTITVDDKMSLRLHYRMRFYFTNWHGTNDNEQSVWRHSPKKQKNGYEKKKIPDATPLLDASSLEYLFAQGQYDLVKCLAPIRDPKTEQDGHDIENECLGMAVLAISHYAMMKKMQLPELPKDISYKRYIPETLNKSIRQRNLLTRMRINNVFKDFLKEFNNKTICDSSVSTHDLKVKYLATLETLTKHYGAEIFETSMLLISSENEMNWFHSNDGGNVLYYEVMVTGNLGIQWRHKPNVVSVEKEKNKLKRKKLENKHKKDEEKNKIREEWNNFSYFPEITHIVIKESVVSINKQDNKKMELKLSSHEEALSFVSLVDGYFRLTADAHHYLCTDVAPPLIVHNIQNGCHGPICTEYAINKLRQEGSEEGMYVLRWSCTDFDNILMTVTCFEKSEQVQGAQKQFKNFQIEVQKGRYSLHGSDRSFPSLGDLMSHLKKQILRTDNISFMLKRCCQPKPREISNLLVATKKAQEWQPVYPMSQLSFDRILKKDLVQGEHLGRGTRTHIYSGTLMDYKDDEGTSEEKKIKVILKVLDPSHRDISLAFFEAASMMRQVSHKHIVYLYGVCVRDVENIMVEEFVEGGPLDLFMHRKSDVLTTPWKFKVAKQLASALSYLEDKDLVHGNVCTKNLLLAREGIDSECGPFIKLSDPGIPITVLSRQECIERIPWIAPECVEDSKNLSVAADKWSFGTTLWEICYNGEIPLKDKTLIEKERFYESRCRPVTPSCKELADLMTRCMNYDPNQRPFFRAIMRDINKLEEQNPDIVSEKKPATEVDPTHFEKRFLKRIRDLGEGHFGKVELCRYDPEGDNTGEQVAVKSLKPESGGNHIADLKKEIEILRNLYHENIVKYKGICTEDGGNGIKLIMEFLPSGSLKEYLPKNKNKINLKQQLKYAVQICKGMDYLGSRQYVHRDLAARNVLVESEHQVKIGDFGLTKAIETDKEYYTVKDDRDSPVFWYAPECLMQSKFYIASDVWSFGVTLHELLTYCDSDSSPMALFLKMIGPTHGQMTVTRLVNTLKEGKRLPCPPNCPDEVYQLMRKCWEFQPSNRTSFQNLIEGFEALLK

Structure (SMILES) | EC50 [4] [nM] | IC50 [5] [nM] | solubility thermodynamic [7] [µM] | EC50 [8] [nM] | CL free [9] [mL/min/kg] | fold induction at 24 h, 10 µM (CYP3A4 [12]) | Emax at 24 h, 10 µM (CYP3A4 [13]) [%] | inhibition at 0.25 h, 50 µM (CYP3A4 [14]) [%] | further results
CC(=O)Nc1cc2c(-c3cccc(S(=O)(=O)N(C)C)c3)c[nH]c2cn1 | 120 | 30 | 1.2 (≈ 0.43 µg/mL) | 19700 | 113 |  |  |  | IC50 [1]: 40000 nM; IC50 [2]: 6000 nM; EC50 [3]: > 19000 nM; EC50 [6]: > 19000 nM; Ratio IC50 [10]: > 200; Ratio IC50 [11]: > 200
CO[C@@]1(c2cc(OC(F)F)cc(-c3cn(C)c4cnc(NC(C)=O)cc34)n2)CCOC1 |  |  |  |  | 102 | 6 | 64 | 53 | 
CO[C@@]1(c2cc(C(F)F)cc(-c3cn(C)c4cnc(NC(C)=O)cc34)n2)CCOC1 | 40 |  |  |  | 31.7 | 7.7 | 23 | 49 | 
CCS(=O)(=O)c1cccc(-c2cn(C)c3cnc(NC(C)=O)cc23)n1 | 93 | 9 |  | 17700 | 85 |  |  |  | 
COc1cc(-c2cn(C3COC3)c3cnc(NC(C)=O)cc23)nc([C@]2(OC)CCOC2)c1 |  |  |  |  | 12.5 | 13 | 49 | 43 | 
CO[C@@]1(c2cc(C#N)cc(-c3cn([C@@H]4CC4(F)F)c4cnc(NC(C)=O)cc34)n2)CCOC1 |  |  |  |  | 68.3 | 13 | 40 | 20 | 
CN(C)S(=O)(=O)c1cccc(-c2c[nH]c3cnc(NC(=O)C4CC4)cc23)c1 | 540 | 480 | < 0.8 | 36300 | 765 |  |  |  | 
CC(=O)Nc1cc2c(-c3cccc(S(=O)(=O)N(C)C)c3)cn(C)c2cn1 | 20 | 10 | 3.2 (≈ 1.19 µg/mL) | 6800 | 140 |  |  |  | 
COCCOc1cc(-c2cn(C)c3cnc(NC(C)=O)cc23)nc([C@]2(OC)CCOC2)c1 | 30 |  |  |  | 110 | 4 | 42 | 6 | 
CC(=O)Nc1cc2c(-c3cccc(S(=O)(=O)C4COC4)n3)cn(C)c2cn1 | 194 | 35 |  | 14000 |  |  |  |  | 
CO[C@@]1(c2cc(OCC[C@@H](C)O)cc(-c3cn(C)c4cnc(NC(C)=O)cc34)n2)CCOC1 | 77 |  | 105 (≈ 47.7 µg/mL) | > 20000 |  | 2.6 | 6 | 8 | EC50 [3]: > 20000 nM; CL free [15]: 567 mL/min/kg; half-life [16]: 1.1 h; bioavailability [17]: 26%; Vd [18]: 19 L/kg; EC50 [6]: > 20000 nM
CC(=O)Nc1cc2c(-c3cccc(S(=O)(=O)N(C)C)n3)cn(C)c2cn1 | 24 | 4 | 2.4 (≈ 0.896 µg/mL) | 3400 | 132 |  |  |  | 
CO[C@@]1(c2cccc(-c3cn(C)c4cnc(NC(N)=O)cc34)n2)CCOC1 | 60 | 5 | 16 (≈ 5.88 µg/mL) |  | 41.7 |  |  |  | 
CO[C@@]1(c2cc(O[C@@H](C)CCO)cc(-c3cn(C)c4cnc(NC(C)=O)cc34)n2)CCOC1 |  |  | 190 (≈ 86.4 µg/mL) | > 20000 | 102 | 1.8 | 3 | 21 | EC50 [3]: > 20000 nM; CL free [15]: 102 mL/min/kg; bioavailability [19]: 71%; AUC(0-inf) [20]: 300 ng·h/mL; half-life [16]: 0.5 h; half-life [21]: 1.4 h; bioavailability [17]: 16%; Vd [18]: 2.5 L/kg; CL free [22]: 41.7 mL/min/kg; EC50 [6]: > 20000 nM; CL free [23]: 78.3 mL/min/kg; half-life [24]: 3 h; CL free [25]: 107 mL/min/kg; CL free [26]: 30 mL/min/kg
CO[C@@]1(c2cc(OCC#N)cc(-c3cn(C)c4cnc(NC(C)=O)cc34)n2)CCOC1 |  |  |  |  | 33 |  |  |  | 
CO[C@@]1(c2cccc(-c3cn(C)c4cnc(NC(C)=O)cc34)n2)CCOC1 |  | 30 | 20 (≈ 7.33 µg/mL) |  | 80 |  |  |  | 
CO[C@]1(c2cccc(-c3cn(C)c4cnc(NC(C)=O)cc34)n2)CCOC1 | 1500 | 60 | 29 (≈ 10.6 µg/mL) |  | 80 |  |  |  | 
